What was measured:
[1] = test system: Salmonella typhimurium NCTC 74; test: Nitroreductase detection on Columbia agar, colonies read under UV; assay type: cell-based; set-up: key to Intensity of fluorescence, Salmonella typhimurium NCTC 74 / F: fluorescence (intensity), Salmonella typhimurium NCTC 74 / Intensity of the fluorescence, Salmonella typhimurium NCTC 74: − = no fluorescence detected; +/− = weak fluorescence; + = medium fluorescence; ++ = strong fluorescence; settings: for Intensity of fluorescence, Salmonella typhimurium NCTC 74: 100 mg/l in Columbia agar, 24 h 37° C., UV 360-365 nm; for Salmonella typhimurium result with the substrate: table 2
Procedure: (§1) A mass of 40 mg of each substrate was dissolved in 4 ml of dimethylformamide (DMF). This solution was entirely taken up in 400 ml of Columbia agar autoclaved beforehand and kept molten at 50° C. The final concentration for each substrate was 100 mg/l.
(§2) Each of the media was distributed into Petri dishes 90 mm in diameter, in a proportion of 20 ml per dish.
(§3) 18 microorganism strains derived from collections and belonging to various species of bacteria and of yeasts were inoculated onto these media by semi-quantitative isolation of 10 μl of a suspension at 0.5 McFarland diluted to 1/20. The media were incubated for 24 hours at 37° C., then the colonies formed were examined visually under UV illumination at 360-365 nm.

[2] = test system: Streptococcus pyogenes NCTC 8306; test: as above; assay type: cell-based; set-up: key: − = no fluorescence detected; +/− = weak fluorescence; + = medium fluorescence; ++ = strong fluorescence; settings: 100 mg/l in Columbia agar, 24 h 37° C., UV 360-365 nm
Procedure: as §1, §2, §3

[3] = test system: Enterococcus faecalis NCTC 775; test: as above; assay type: cell-based; set-up: key: − = no fluorescence detected; +/− = weak fluorescence; + = medium fluorescence; ++ = strong fluorescence; settings: 100 mg/l in Columbia agar, 24 h 37° C., UV 360-365 nm
Procedure: as §1, §2, §3

[4] = test system: Staphylococcus aureus NCTC 6571; test: as above; assay type: cell-based; set-up: key: − = no fluorescence detected; +/− = weak fluorescence; + = medium fluorescence; ++ = strong fluorescence; settings: 100 mg/l in Columbia agar, 24 h 37° C., UV 360-365 nm
Procedure: as §1, §2, §3

[5] = test system: Yersinia enterocolitica NCTC 11176; test: as above; assay type: cell-based; set-up: key: − = no fluorescence detected; +/− = weak fluorescence; + = medium fluorescence; ++ = strong fluorescence; settings: 100 mg/l in Columbia agar, 24 h 37° C., UV 360-365 nm
Procedure: as §1, §2, §3

[6] = test system: Serratia marcescens NCTC 10211; test: as above; assay type: cell-based; set-up: key: − = no fluorescence detected; +/− = weak fluorescence; + = medium fluorescence; ++ = strong fluorescence; settings: 100 mg/l in Columbia agar, 24 h 37° C., UV 360-365 nm
Procedure: as §1, §2, §3

[7] = test system: Pseudomonas aeruginosa NCTC 10662; test: as above; assay type: cell-based; set-up: key: − = no fluorescence detected; +/− = weak fluorescence; + = medium fluorescence; ++ = strong fluorescence; settings: 100 mg/l in Columbia agar, 24 h 37° C., UV 360-365 nm
Procedure: as §1, §2, §3

[8] = test system: Listeria monocytogenes NCTC 11994; test: as above; assay type: cell-based; set-up: key: − = no fluorescence detected; +/− = weak fluorescence; + = medium fluorescence; ++ = strong fluorescence; settings: 100 mg/l in Columbia agar, 24 h 37° C., UV 360-365 nm
Procedure: as §1, §2, §3

[9] = test system: Bacillus subtilis NCTC 9372; test: as above; assay type: cell-based; set-up: key: − = no fluorescence detected; +/− = weak fluorescence; + = medium fluorescence; ++ = strong fluorescence; settings: 100 mg/l in Columbia agar, 24 h 37° C., UV 360-365 nm
Procedure: as §1, §2, §3

[10] = test system: Enterobacter cloacae NCTC 11936; test: as above; assay type: cell-based; set-up: key: − = no fluorescence detected; +/− = weak fluorescence; + = medium fluorescence; ++ = strong fluorescence; settings: 100 mg/l in Columbia agar, 24 h 37° C., UV 360-365 nm
Procedure: as §1, §2, §3

[11] = test system: Staphylococcus epidermidis NCTC 11047; test: as above; assay type: cell-based; set-up: key: − = no fluorescence detected; +/− = weak fluorescence; + = medium fluorescence; ++ = strong fluorescence; settings: 100 mg/l in Columbia agar, 24 h 37° C., UV 360-365 nm
Procedure: as §1, §2, §3

[12] = test system: Candida albicans ATCC 90028; test: as above; assay type: cell-based; set-up: key: − = no fluorescence detected; +/− = weak fluorescence; + = medium fluorescence; ++ = strong fluorescence; settings: 100 mg/l in Columbia agar, 24 h 37° C., UV 360-365 nm
Procedure: as §1, §2, §3

[13] = test system: Escherichia coli NCTC 10418; test: as above; assay type: cell-based; set-up: key: − = no fluorescence detected; +/− = weak fluorescence; + = medium fluorescence; ++ = strong fluorescence; settings: 100 mg/l in Columbia agar, 24 h 37° C., UV 360-365 nm
Procedure: as §1, §2, §3

[14] = test system: S. aureus (including MRSA) 10 strains; test: Detection of various strains of S. aureus in the presence of substrates; assay type: cell-based, Staphylococcus aureus; settings: for No. of strains detected, S. aureus (including MRSA): 10 strains
[15] = test system: Acinetobacter baumanii ATCC 19606; test: Nitroreductase detection on Columbia agar, colonies read under UV; assay type: cell-based; set-up: key to Intensity of fluorescence, Acinetobacter baumanii ATCC 19606 / Intensity of the fluorescence, Acinetobacter baumanii ATCC 19606: − = no fluorescence detected; +/− = weak fluorescence; + = medium fluorescence; ++ = strong fluorescence; settings: for Intensity of fluorescence, Acinetobacter baumanii ATCC 19606: 100 mg/l in Columbia agar, 24 h 37° C., UV 360-365 nm
Procedure: as §1, §2, §3

[16] = test system: S. epidermidis 2 strains; test: Detection of various strains of S. aureus in the presence of substrates; assay type: cell-based
Procedure: as §1, §2
18 microorganism strains derived from collections and belonging to various species of bacteria and of yeasts were inoculated onto these media by semi-quantitative isolation of 10 μl of a suspension at 0.5 McFarland diluted to 1/20. […]

[17] = test system: Staph spp 12 strains; test: as above; assay type: cell-based
[18] = test system: Candida glabrata NCPF 3943; test: Nitroreductase detection on Columbia agar, colonies read under UV; assay type: cell-based; set-up: key to Intensity of fluorescence, Candida glabrata NCPF3943 / F: fluorescence (intensity), Candida glabrata NCPF 3943 / Intensity of the fluorescence, Candida glabrata NCPF 3943: − = no fluorescence detected; +/− = weak fluorescence; + = medium fluorescence; ++ = strong fluorescence; settings: 100 mg/l in Columbia agar, 24 h 37° C., UV 360-365 nm
Procedure: as §1, §2, §3

[19] = test system: MRSA NCTC 11939; test: as above; assay type: cell-based, Staphylococcus aureus; set-up: key: − = no fluorescence detected; +/− = weak fluorescence; + = medium fluorescence; ++ = strong fluorescence; settings: 100 mg/l in Columbia agar, 24 h 37° C., UV 360-365 nm
Procedure: as §1, §2, §3

[20] = test system: Morganella morganii 462403 (wild); test: as above; assay type: cell-based; set-up: key to Intensity of fluorescence, Morganella morganii 462403 / F: fluorescence (intensity), Morganella morganii 462403 (wild) / Intensity of the fluorescence, Morganella morganii 462403 (wild): − = no fluorescence detected; +/− = weak fluorescence; + = medium fluorescence; ++ = strong fluorescence; settings: for Intensity of fluorescence, Morganella morganii 462403: 100 mg/l in Columbia agar, 24 h 37° C., UV 360-365 nm
Procedure: as §1, §2, §3

[21] = test system: Enterococcus 6 strains; test: Detection of various strains of S. aureus in the presence of substrates; assay type: cell-based

SMILES	Intensity of fluorescence, Salmonella typhimurium NCTC 74 [1]	Salmonella typhimurium result with the substrate [1]	Intensity of fluorescence, Streptococcus pyogenes NCTC 8306 [2]	Intensity of fluorescence, Enterococcus faecalis NCTC 775 [3]	Intensity of fluorescence, Staphylococcus aureus NCTC 6571 [4]	Intensity of fluorescence, Yersinia enterocolitica NCTC 11176 [5]	Intensity of fluorescence, Serratia marcescens NCTC 10211 [6]	Intensity of fluorescence, Pseudomonas aeruginosa NCTC 10662 [7]	Intensity of fluorescence, Listeria monocytogenes NCTC 11994 [8]	Intensity of fluorescence, Bacillus subtilis NCTC 9372 [9]	Intensity of fluorescence, Enterobacter cloacae NCTC 11936 [10]	Distinguishing or identifying Staphylococcus aureus strains, in particular MRSA, from most of the other Gram-positive bacterial strains [14]	No. of strains detected, S. aureus (including MRSA) ([14]; 24 h)	No. of strains detected, S. aureus (including MRSA) ([14]; 48 h)	No. of strains detected, S. epidermidis ([16]; 24 h)	No. of strains detected, S. epidermidis ([16]; 48 h)	No. of strains detected, Staph spp ([17]; 24 h)	No. of strains detected, Staph spp ([17]; 48 h)	No. of strains detected, Enterococcus ([21]; 24 h)	No. of strains detected, Enterococcus ([21]; 48 h)	other results
O=[N+]([O-])c1ccccc1-c1nc2cc(Cl)ccc2o1 [Substrate 2]	−	negative	−	−	+	+/−	+	−	−	−	+	make it possible to distinguish or identify the Staphylococcus aureus strains	10	10	0	2	12	12	0	1	Intensity of fluorescence, Staphylococcus epidermidis NCTC 11047 [11]: −; Intensity of fluorescence, Candida albicans ATCC 90028 [12]: −; Intensity of fluorescence, Escherichia coli NCTC 10418 [13]: +^1; Intensity of fluorescence, Acinetobacter baumanii ATCC 19606 [15]: +/−; Distinguishing Pseudomonas aeruginosa from Acinetobacter baumanii ([15]; table 2): make it possible to distinguish Pseudomonas aeruginosa from Acinetobacter baumanii; Intensity of fluorescence, Candida glabrata NCPF3943 [18]: −; Intensity of fluorescence, Staphylococcus aureus NCTC 11939 [19]: +; Intensity of fluorescence, Morganella morganii 462403 [20]: +/−
Cc1ccc2oc(-c3ccccc3[N+](=O)[O-])nc2c1 [Substrate 3]												make it possible to distinguish or identify the Staphylococcus aureus strains	10	10	0	2	12	12	0	1	
O=[N+]([O-])c1ccc(Cl)cc1-c1nc2ccccc2o1 [Substrate 4]												make it possible to distinguish or identify the Staphylococcus aureus strains	10	10	0	2	12	12	0	1	
CN1CCN(c2ccc([N+](=O)[O-])c(-c3nc4ccccc4o3)c2)CC1 [Substrate 8]												make it possible to distinguish or identify the Staphylococcus aureus strains	10	10	0	2	12	12	0	1	
O=[N+]([O-])c1ccccc1-c1nc2ccccc2n1CCc1ccccc1 [Substrate 12]	−	negative	−	−	−	−	−	−	−	−	−										Intensity of fluorescence, Staphylococcus epidermidis NCTC 11047 [11]: −; Intensity of fluorescence, Candida albicans ATCC 90028 [12]: −; Intensity of fluorescence, Escherichia coli NCTC 10418 [13]: −; Intensity of fluorescence, Acinetobacter baumanii ATCC 19606 [15]: −; Intensity of fluorescence, Candida glabrata NCPF3943 [18]: −; Intensity of fluorescence, Staphylococcus aureus NCTC 11939 [19]: −; Intensity of fluorescence, Morganella morganii 462403 [20]: +/−; Specificity of the substrate ([20]; table 2): specific for Morganella morganii
O=[N+]([O-])c1ccc(Cl)cc1-c1nc2ccccc2s1 [Substrate 21]												make it possible to distinguish or identify the Staphylococcus aureus strains	10	10	0	2	12	12	0	1	
